The nature of the experiment: Inhibition of Bacillus anthracis edema factor-induced cytotoxicity in mouse RAW264.7 cells assessed as LDH release after 4 hrs. For orientation: LDH leaks from cells whose membrane has failed.

As to `O=C(O)c1cccc(NC(=O)c2cccc3c2C(=O)c2ccccc2-3)c1` [3-[(9-oxo-9Hfluorene-1-carbonyl)-amino]-benzoic acid], the IC50 came to 1.7 µM.
For the compound `COC(=O)c1ccc([C@H]2Nc3ccc(C(=O)O)cc3[C@@H]3C=CC[C@H]23)cc1` [(3aS,4S,9bR)-4-(4-(methoxycarbonyl)phenyl)-3a,4,5,9b-tetrahydro-3H-cyclopenta[c]quinoline-8-carboxylic acid], the IC50 is 100 µM.

By IC50 is commonly meant the midpoint of a concentration-inhibition curve.

Values taken from BindingDB's records for doi:10.1016/j.bmc.2008.06.036 (University of Texas Medical Branch, 2008).
